# In ChEMBL document CHEMBL1147236, “Semiplenamides A-G, fatty acid amides from a Papua New Guinea collection of the marine cyanobacterium Lyngbya semiplena” (J Nat Prod, 2003):
# Experiments:
# [1] = Toxicity in Artemia salina after 24 hrs; assay type: organism-based; settings: in vivo, read-out: LD50
# Cannabinoid receptor 1 = Cannabinoid receptor 1 (Rattus norvegicus, UniProt P20272); assay: Displacement of [3H]SR141716A from CB1 receptor in CD rat brain membranes; assay type: cell membranes, Membrane
# [2] = Inhibition of AMT in rat RBL-2H3 cells assessed as [14C]anandamide uptake; assay type: cell-based
# Chain of Cannabinoid receptor 1 (P20272 whole entry): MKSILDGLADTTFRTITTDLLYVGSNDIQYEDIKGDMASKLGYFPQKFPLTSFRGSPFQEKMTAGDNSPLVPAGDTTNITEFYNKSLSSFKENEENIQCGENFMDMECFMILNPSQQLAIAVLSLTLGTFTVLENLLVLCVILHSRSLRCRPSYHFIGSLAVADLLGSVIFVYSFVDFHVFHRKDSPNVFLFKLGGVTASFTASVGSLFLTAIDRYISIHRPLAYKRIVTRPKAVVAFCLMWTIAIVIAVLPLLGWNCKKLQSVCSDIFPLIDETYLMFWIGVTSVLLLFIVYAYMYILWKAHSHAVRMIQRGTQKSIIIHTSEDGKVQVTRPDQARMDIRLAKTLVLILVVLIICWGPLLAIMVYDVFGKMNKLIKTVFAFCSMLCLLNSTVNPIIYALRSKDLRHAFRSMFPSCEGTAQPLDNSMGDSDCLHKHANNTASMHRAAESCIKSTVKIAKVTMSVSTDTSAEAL
Structure (SMILES),LC50 at 24 h [1] [µM],Ki (Cannabinoid receptor 1) [µM],IC50 [2] [µM]
CCCCCCCCCCCCCCC[C@H]1O[C@]1(C)C(=O)NC(C)CO (stereo partly specified) [SEMIPLENAMIDE F],1.4,–,–
CCCCCCCCCCCCC/C=C(\C)C(=O)N[C@@H](C)CO [SEMIPLENAMIDE C],1.5,–,–
CCCCCCCCCCCCC/C=C/CC/C=C(\C)C(=O)NCCOC(C)=O [SEMIPLENAMIDE B],2.5,18.7,–
CCCCCCCCCCCCCCC[C@H]1O[C@]1(C)C(=O)NC(C)COC(C)=O (stereo partly specified) [SEMIPLENAMIDE G],2.4,17.9,–
CCCCCCCCCCCCC/C=C/CC/C=C(\C)C(=O)NCCO [SEMIPLENAMIDE A],1.4,19.5,18.1
CCCCCCCCCCCCCCCCC/C=C(\C)C(=O)N[C@@H](C)COC(C)=O [SEMIPLENAMIDE D],18,–,–
CCCCCCCCCCCCCCC/C=C(\C)C(=O)N[C@@H](C)COC(C)=O [SEMIPLENAMIDE E],19,–,–
